From patent US20210284621A1 (priority 2018, published 2021)
Where two headings read alike, the source gives them in different places.

Assays:
CB2 receptor [1] = molecular target: T1, CB2 receptor (Homo sapiens, UniProt P34972); test: CB2 competitive radioligand binding assay ([3H] WIN-55,212-2); set-up: expressed in transfected cells; host or cells: CHO-K1 cells; conditions: for inhibition at 0.05 µM: 0.05 μM compound, 2.4 nM [3H] WIN-55,212-2, 90 min 37° C.; for Fold Selectivity (CB1/CB2): Table 2, ratio of Ki CB1/CB2
Outline: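 Single-concentration displacement: 2.4 nM [3H]WIN-55,212-2 competed with 0.05 μM compound (1% DMSO) for 90 min at 37 °C on human CB2 expressed in CHO-K1 cells (HEPES 20 mM, pH 7.0, 0.5% BSA). Result given as % inhibition of bound radioligand.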

CB1 receptor [2] = molecular target: T2, CB1 receptor (Homo sapiens, UniProt P21554); test: cell-based; set-up: host or cells: PathHunter cell lines
CB2 receptor [3] = molecular target: T1, CB2 receptor; test: cAMP Assay #1: CB2 adenylylcyclase assay in CHO cells; format: cell-based; set-up: expressed in transfected cells; host or cells: CHO cells
Description: (§1) Compounds of the invention were assayed in an adenylylcyclase assay to determine agonist activity on the CB1 and CB2 receptors, the results of which are provided in Table 4. Exemplary methods for the adenylylcyclase assay can be found in the literature, for example, in Rhee, M-H., et al. Cannabinol Derivatives: Binding to Cannabinoid Receptors and Inhibition of Adenylylcyclase. J Med Chem. 40: 3228-3233 (1997).
CB2 Activity as determined by Adenylylcyclase Assay: CB2 receptor agonist activity was measured by measuring cAMP production. A compound of the invention was incubated with CHO cells expressing human recombinant CB2 for 10 minutes at 37° C.
(§2) Determination of EC50 values: The EC50 values (concentration producing a half-maximal response) were determined by non-linear regression analysis of the concentration-response curves generated with mean replicate values using Hill equation curve fitting: Y=D+[(A−D)/(1+(C/C50)^nH)], where Y=response, A=left asymptote of the curve, D=right asymptote of the curve, C=compound concentration, and C50=EC50, and nH=slope factor. This analysis was performed using software developed at Cerep (Hill software) and validated by comparison with data generated by the commercial software SigmaPlot® 4.0 for Windows® (© 1997 by SPSS Inc.).

CB2 receptor [4] = molecular target: T1, CB2 receptor; test: cAMP Assay #2: Hit Hunter cAMP assay, Gi-coupled agonist activity, CB2; format: cell-based; set-up: host or cells: cAMP Hunter cell lines; conditions: for CB2 fold selectivity: CB1 EC50 / CB2 EC50
Description: (§3) Compounds of the invention were assayed in the Hit Hunter® cAMP assay to determine Gi-coupled agonist activity on the CB1 and CB2 receptors, the results of which are provided in Table 5.
(§4) The Hit Hunter® cAMP assay monitors the activation of a GPCR via Gi and […] secondary messenger signaling in a homogenous, non-imaging assay format using a technology developed by DiscoverX called Enzyme Fragment Complementation (EFC) with β-galactosidase (β-Gal) as the functional reporter. […] ED is fused to cAMP and in the assay competes with cAMP generated by cells for binding to a cAMP-specific antibody. Active β-Gal is formed by complementation of exogenous EA to any unbound ED cAMP. Active enzymes can then convert a chemiluminescent substrate, generating an output signal detectable on a standard microplate reader.
(§5) cAMP Hunter cell lines were expanded from freezer stocks according to standard procedures. Cells were seeded in a total volume of 20 μL into white walled, 384-well microplates and incubated at 37° C. for the appropriate time prior to testing. cAMP modulation was determined using the DiscoverX Hit Hunter cAMP XS+ assay. For Gi agonist activity determination, cells were incubated with sample in the presence of EC80 forskolin to induce response (20 μM and 25 μM in the CB1 and CB2 assays, respectively). Media was aspirated from cells and replaced with 15 μL 2:1 HBSS/10 mM HEPES:cAMP XS+Ab reagent.
(§6) Intermediate dilution of sample stocks was performed to generate 4× sample in assay buffer. 5 μL of 4× compound was added to cells and incubated at 37° C. or room temperature for 30 or 60 minutes. Final vehicle concentration was 1%. Assay signal was generated through incubation with 20 μL cAMP XS+ED/CL lysis cocktail for one hour at room temperature. Microplates were read following signal generation with a PerkinElmer Envision™ instrument for chemiluminescent signal detection. Compound activity was analyzed using CBIS data analysis suite (Chem Innovation, CA). For agonist assays, percentage activity was calculated using the following formula: % Activity=100%×(1−(mean RLU of test sample−mean RLU of Max control ligand)/(mean RLU of vehicle control−mean RLU of Max control ligand). Control ligand was the non-selective CB1/CB2 agonist CP55,940.

CB1 receptor [5] = molecular target: T2, CB1 receptor; test: cAMP Assay #2: Hit Hunter cAMP assay, Gi-coupled agonist activity, CB1; format: cell-based; set-up: host or cells: PathHunter cell lines
Description: as §3, §4, §5, §6

CB2 receptor [6] = molecular target: T1, CB2 receptor; test: cell-based; set-up: host or cells: cAMP Hunter cell lines; conditions: PathHunter agonist mode; read-out: CB2 Activity (β-Arrestin)
Outline: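 PathHunter β-Arrestin enzyme fragment complementation cells, EA-tagged β-Arrestin and PK-tagged receptor, exposed to compound for 90 to 180 minutes at 37° C. or room temperature, 1% vehicle. Chemiluminescence read 1 h after detection reagent; agonist % activity relative to vehicle and MAX control ligand.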

CB1 receptor [7] = molecular target: T2, CB1 receptor; test: cAMP Assay #1: CB1 adenylylcyclase assay in CHO cells; format: cell-based; set-up: expressed in transfected cells; host or cells: CHO cells
Description: as §1
CB1 Activity as determined by Adenylylcyclase Assay: CB1 receptor agonist activity was measured by measuring cAMP production. A compound of the invention was incubated with CHO cells expressing human recombinant CB1 for 20 minutes at 37° C.
as §2

CB1 receptor [8] = molecular target: T2, CB1 receptor; test: CB1 competitive radioligand binding assay ([3H] SR141716A); set-up: expressed in transfected cells; host or cells: Chem-1 cells; conditions: for inhibition at 0.5 µM: 0.5 μM compound, 2.0 nM [3H] SR141716A, 90 min 37° C.
Outline: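 Chem-1 cells expressing human recombinant CB1 incubated 90 min at 37° C with 2.0 nM [3H]SR141716A and compound at 0.5 μM (1% DMSO) in HEPES pH 7.4 buffer with MgCl2, CaCl2, 0.2% BSA. Read-out is % inhibition of radioligand binding.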

[9] = PathHunter agonist mode, read-out: CB1 Activity (β-Arrestin)
[10] = Table 2, read-out: CB2 Binding Ki
[11] = CHO cells, 10 min 37° C., relative to 100 nM WIN 55212-2, read-out: CB2 Activity EC50 (cAMP)
[12] = Hit Hunter cAMP, 25 μM forskolin, control ligand CP55,940, read-out: CB2, EC50
[13] = Hit Hunter cAMP, 20 μM forskolin, control ligand CP55,940, read-out: CB1, EC50
[14] = CHO cells, 20 min 37° C., relative to 10 nM CP 55940, read-out: CB1 Activity EC50 (cAMP)
[15] = Table 2, read-out: CB1 Binding Ki

T1 sequence (P34972 whole entry): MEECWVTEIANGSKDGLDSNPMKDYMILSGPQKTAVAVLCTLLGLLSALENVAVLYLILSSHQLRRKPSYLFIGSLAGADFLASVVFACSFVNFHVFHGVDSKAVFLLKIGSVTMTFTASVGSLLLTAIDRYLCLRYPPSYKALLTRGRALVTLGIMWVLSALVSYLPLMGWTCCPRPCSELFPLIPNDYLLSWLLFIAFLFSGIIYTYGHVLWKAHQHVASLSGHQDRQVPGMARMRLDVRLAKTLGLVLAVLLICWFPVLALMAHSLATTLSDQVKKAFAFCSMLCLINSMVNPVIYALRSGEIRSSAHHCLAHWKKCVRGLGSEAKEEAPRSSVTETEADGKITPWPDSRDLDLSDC
T2 sequence (P21554 whole entry): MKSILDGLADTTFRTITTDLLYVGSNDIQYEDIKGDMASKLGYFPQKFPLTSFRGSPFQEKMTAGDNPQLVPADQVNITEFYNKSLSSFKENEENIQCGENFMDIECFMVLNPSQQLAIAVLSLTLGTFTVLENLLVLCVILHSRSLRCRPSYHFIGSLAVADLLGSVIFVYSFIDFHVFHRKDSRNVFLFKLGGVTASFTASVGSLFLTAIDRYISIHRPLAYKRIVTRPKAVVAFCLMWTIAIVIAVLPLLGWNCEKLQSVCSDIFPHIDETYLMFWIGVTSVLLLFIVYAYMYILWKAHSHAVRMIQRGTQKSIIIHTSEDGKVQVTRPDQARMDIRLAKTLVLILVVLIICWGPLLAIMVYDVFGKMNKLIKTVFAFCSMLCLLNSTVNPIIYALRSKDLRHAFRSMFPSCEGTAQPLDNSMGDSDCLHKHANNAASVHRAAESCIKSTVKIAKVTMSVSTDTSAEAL

SMILES | Ki (CB2 receptor [1]) [nM] | inhibition at 0.05 µM (CB2 receptor [1]) [%] | Fold Selectivity (CB1/CB2) (CB2 receptor [1]) | EC50 (CB1 receptor [2]; [9]) [nM] | EC50 (CB2 receptor [3]) [nM] | EC50 (CB2 receptor [4]) [nM] | CB2 fold selectivity (CB2 receptor [4]; Hit Hunter cAMP) | EC50 (CB1 receptor [5]) [nM] | EC50 (CB2 receptor [6]) [nM] | EC50 (CB1 receptor [7]) [nM] | Ki (CB1 receptor [8]) [nM] | inhibition at 0.5 µM (CB1 receptor [8]) [%] | Ki (CB2 receptor [1]; [10]) [nM] | EC50 (CB2 receptor [3]; [11]) [nM] | EC50 (CB2 receptor [4]; [12]) [nM] | EC50 (CB1 receptor [5]; [13]) [nM] | EC50 (CB1 receptor [7]; [14]) [nM] | Ki (CB1 receptor [8]; [15]) [nM] | EC50 (CB1 receptor [2]) [nM]
CCCCCCC(C)(C)c1cc(O)c2c(c1)OC(C)(C)[C@@H]1CC=C(C(=O)NC3CC3)C[C@@H]21 [Compound 6, (6aR,10aR)—N-Cyclopropyl-1-hydroxy-6,6-dimethyl-3-(2-methyloctan-2-yl)-6a,7,10,10a-tetrahydro-6H-benzo[c]chromene-9-carboxamide] | 3.9 | 98 | 12 | 160 | < 3 | 0.8 | 6.0 | 4.7 | 210 | < 3 | 45 | 64 | – | – | – | – | – | – | –
CCCCCCC(C)(C)c1cc(O)c2c(c1)OC(C)(C)[C@@H]1CC=C(C(=O)NCC(O)CO)C[C@@H]21 (stereo partly drawn) [Compound 24, (6aR,10aR)-N-(2,3-Dihydroxypropyl)-1-hydroxy-6,6-dimethyl-3-(2-methyloctan-2-yl)-6a,7,10,10a-tetrahydro-6H-benzo[c]chromene-9-carboxamide] | – | 60 | 35 | > 3000 | – | – | 63.5 | – | 2 | – | – | 44 | 55 | 2.4 | 3.5 | 223 | 13 | 1930 | –
CCCCCCC(C)(C)c1cc(O)c2c(c1)OC(C)(C)[C@@H]1CC=C(C(=O)OC)C[C@@H]21 [Compound 28, Methyl (6aR,10aR)-1-hydroxy-6,6-dimethyl-3-(2-methyloctan-2-yl)-6a,7,10,10a-tetrahydro-6H-benzo[c]chromene-9-carboxylate] | 32 | 77 | 22 | – | 59 | – | – | – | 1.7 | 8.2 | 699 | 74 | – | – | – | – | – | – | 654
CCCCCCC(C)(C)c1cc(O)c2c(c1)OC(C)(C)[C@@H]1CC=C(C(=O)NCCO)C[C@@H]21 [Compound 5, (6aR,10aR)-1-Hydroxy-N-(2-hydroxyethyl)-6,6-dimethyl-3-(2-methyloctan-2-yl)-6a,7,10,10a-tetrahydro-6H-benzo[c]chromene-9-carboxamide] | 28 | 57 | 12.6 | 620 | 3.3 | 3.9 | 8.2 | 32.2 | 520 | < 3 | 350 | 49 | – | – | – | – | – | – | –
CC(C)(c1ccccc1)c1cc(O)c2c(c1)OC(C)(C)[C@@H]1CC=C(C(=O)O)C[C@@H]21 [Compound 35, (6aR,10aR)-1-Hydroxy-6,6-dimethyl-3-(2-phenylpropan-2-yl)-6a,7,10,10a-tetrahydro-6H-benzo[c]chromene-9-carboxylic acid] | > 3000 | – | – | > 3000 | > 300 | – | – | – | > 3000 | > 300 | > 3000 | – | – | – | – | – | – | – | –
CCCCCCC(C)(C)c1cc(OC)c2c(c1)OC(C)(C)[C@@H]1CC=C(C(=O)O)C[C@@H]21 [Compound 34, (6aR,10aR)-1-methoxy-6,6-dimethyl-3-(2-methyloctan-2-yl)-6a,7,10,10a-tetrahydro-6H-benzo[c]chromene-9-carboxylic acid] | > 3000 | – | – | – | > 300 | – | – | – | > 3000 | > 300 | > 3000 | – | – | – | – | – | – | – | > 3000
CCCCCCC(C)(C)c1cc(O)c2c(c1)OC(C)(C)[C@@H]1CC=C(C(=O)NCCCO)C[C@@H]21 [Compound 13, (6aR,10aR)-1-Hydroxy-N-(3-hydroxypropyl)-6,6-dimethyl-3-(2-methyloctan-2-yl)-6a,7,10,10a-tetrahydro-6H-benzo[c]chromene-9-carboxamide] | – | 68 | 34 | 787 | – | – | 26.5 | – | 807 | – | – | 49 | 12.4 | 3.1 | 2.5 | 66.2 | 4.6 | 420 | –
CCCCCCC(C)(C)c1cc(O)c2c(c1)OC(C)(C)[C@@H]1CC=C(C(=O)N[C@H](C)CCO)C[C@@H]21 [Compound 14, (6aR,10aR)-1-Hydroxy-N—((R)-4-hydroxybutan-2-yl)-6,6-dimethyl-3-(2-methyloctan-2-yl)-6a,7,10,10a-tetrahydro-6H-benzo[c]chromene-9-carboxamide] | – | 47 | 22 | > 3000 | – | – | 115.2 | – | 8 | – | – | 25 | 56 | 9.7 | 4.1 | 470 | 10 | 1230 | –
